Laboratory results published in publication PMC11082216, “A genetically encoded biosensor to monitor dynamic changes of c-di-GMP with high temporal resolution” (Nature Communications, 2024).

Columns and labels:
PdeA [1] = molecular target: T1, PdeA (Caulobacter vibrioides, UniProt A0A0H3CDG5); assay: purified phosphodiesterase turnover of c-di-GMP read with cdGreen2; assay type: biochemical
T1 sequence (A0A0H3CDG5 1-555): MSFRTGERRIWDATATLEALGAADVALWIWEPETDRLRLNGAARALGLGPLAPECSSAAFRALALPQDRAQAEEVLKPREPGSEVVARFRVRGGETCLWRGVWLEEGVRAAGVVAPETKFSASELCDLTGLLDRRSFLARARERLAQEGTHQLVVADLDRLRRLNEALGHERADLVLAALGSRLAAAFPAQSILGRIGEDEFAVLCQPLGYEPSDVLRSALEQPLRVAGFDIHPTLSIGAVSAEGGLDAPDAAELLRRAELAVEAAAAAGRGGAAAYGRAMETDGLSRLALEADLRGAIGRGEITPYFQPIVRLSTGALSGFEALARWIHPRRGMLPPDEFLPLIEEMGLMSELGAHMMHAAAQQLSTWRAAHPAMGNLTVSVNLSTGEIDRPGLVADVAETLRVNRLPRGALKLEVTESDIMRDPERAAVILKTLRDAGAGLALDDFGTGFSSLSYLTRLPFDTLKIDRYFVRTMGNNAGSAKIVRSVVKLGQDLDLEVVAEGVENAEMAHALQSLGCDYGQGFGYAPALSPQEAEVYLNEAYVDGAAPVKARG

PdeA [2] = molecular target: T1, PdeA; assay: activation of purified PdeA phosphodiesterase, c-di-GMP turnover read with cdGreen2, GTP dose-response; assay type: biochemical

Row | SMILES | purified phosphodiesterase turnover of c-di-GMP read with cdGreen2 (PdeA [1]) | Kd (PdeA [2]) [µM]
1 | Nc1nc2c(ncn2[C@@H]2O[C@@H]3COP(=O)(O)O[C@H]4[C@@H](O)[C@H](n5cnc6c(=O)[nH]c(N)nc65)O[C@@H]4COP(=O)(O)O[C@H]3[C@H]2O)c(=O)[nH]1 [c-di-GMP] | purified cdGreen2 also accurately monitored the breakdown of c-di-GMP by all PDEs tested | 
2 | Nc1nc2c(ncn2[C@@H]2O[C@H](COP(=O)(O)OP(=O)(O)OP(=O)(O)O)[C@@H](O)[C@H]2O)c(=O)[nH]1 [GTP] |  | ~3.4
